Measurements taken from patent US20250034161A1, “SPIROCYCLIC COMPOUND AS KRAS-G12C INHIBITOR” (Shanghai Euregen Biopharma Co., Ltd., priority 2020, published 2025).

tested on: NCI-H358 cells; assay: Inhibitory effect on proliferation of NCI-H358 cells (CellTiter-Glo, 72 h); format: cell-based, human; conditions: not given
Description: Inhibitory effect of compounds on the proliferation of […] cells • 1. Experimental principle: NCI-H358 cell is human non-small cell lung cancer cell line expressing KRAS G12C. […] Test materials: NCI-H358 cells were purchased from ATCC; CellTiter-GloR was purchased from Promega (item: G7571); RPMI-1640 was purchased from ATCC (item: 30-2001): fetal bovine serum (FBS) was purchased from EXCELL (item: FND500); Penicillin-streptomycin was purchased from Gibco (item: 15140-122); 0.25% trypsin-ethylenediaminetetraacetic acid digestive juice (Trypsin-EDTA) was purchased from Gibco (item: 25200-072); dimethyl sulfoxide (DMSO) was purchased from Sigma (item: D2650); 96-well plate was purchased from Corning (item: 3610); Incubator was purchased from Thermo (model: 3111); Inverted microscope was purchased from Nikon (item: TS-100); Automatic cell counter was purchased from Life technologies (model: Countess II); Enzyme plate reader was purchased from PerkinElmer (model: Envision); The data processing software was GraphPad Prism 5.0. • 3. Test method:
Cells in logarithmic growth phase were resuspended in growth medium (RPMI-1640+10% FBS) and diluted to target density ([…]). The above cell suspension was inoculated into 96-well plates at 100 μL per well; incubated overnight in a 37° C., 5% CO2 incubator. Medium was used as background control.
The test compound was dissolved in DMSO to prepare a stock solution at a concentration of 10 mmol/L. The stock solution was first diluted to 2 mmol/L with DMSO, and then diluted in 3-fold gradient for a total of 10 concentrations. 3 μL of each concentration of the above solution was taken and diluted with 197 μL of growth medium. […] at 50 μL/well in the 96-well plate. The cells to which the test compound was added were incubated in a 37° C., 5% CO2 incubator for 72 hours. The 96-well plate was equilibrated at room temperature, and 40 μL CellTiter-Glo reagent was added to each well. Then, the plate was mixed on the vortex for 2 minutes, incubated at room temperature for 60 minutes. The luminescence value was read on an EnVision microplate reader, and the IC50 of the compound was calculated using the GraphPad Prism 5.0 software.

Structure (SMILES)	IC50
C=CC(=O)N1CCN(c2nc(OC[C@@H]3CCCN3C)nc3c2CN(C)C2(CCc4ccc(F)cc42)C3)C[C@@H]1CC#N (stereo partly shown) [Formate of 11]	1 to 10 µM
C=CC(=O)N1CCN(c2nc(OC[C@@H]3CCCN3C)nc3c2CN(C)C2(CCOc4ccccc42)C3)C[C@@H]1CC#N (stereo partly shown) [Formate of 22]	0.1 to 1 µM
C=CC(=O)N1CCN(c2nc(OC[C@@H]3CCCN3C)nc3c2CN(C)C2(CCc4c(OC)cccc42)C3)C[C@@H]1CC#N (stereo partly shown) [Formate of 24]	0.1 to 1 µM
C=CC(=O)N1CCN(c2nc(OC[C@@H]3CCCN3C)nc3c2CN(C)C2(CCc4ccccc42)C3)[C@@H](C)C1 (stereo partly shown) [Formate of 4]	1 to 10 µM
C=CC(=O)N1CCN(c2nc(OC[C@@]34CCCN3C[C@H](F)C4)nc3c2CN(C)C2(CCc4cccc(Cl)c42)C3)C[C@@H]1CC#N (stereo partly shown) [Formate of 34]	< 0.1 µM
CN(C)C/C=C/C(=O)N1CCN(c2nc(OC[C@@H]3CCCN3C)nc3c2CN(C)C2(CCc4cccc(F)c42)C3)C[C@@H]1CC#N (stereo partly shown) [Formate of 15]	0.1 to 1 µM
C=CC(=O)N1CCN(c2nc(OC[C@@H]3CCCN3C)nc3c2CNC2(CCc4cccc(F)c42)C3)C[C@@H]1CC#N (stereo partly shown) [Formate of 10]	0.1 to 1 µM
C=CC(=O)N1CCN(c2nc(OC[C@@H]3CCCN3C)nc3c2CN(C)C2(CCc4cccc(Cl)c42)C3)C[C@@H]1CC#N (stereo partly shown) [Formate of 18]	< 0.1 µM
CN1CCC[C@H]1COc1nc2c(c(N3CCN(C(=O)/C=C/CF)[C@@H](CC#N)C3)n1)CN(C)C1(CCc3ccccc31)C2 (stereo partly shown) [Compound 14]	1 to 10 µM
C=CC(=O)N1CCN(c2nc(OC[C@@H]3CCCN3C)nc3c2CN(C)C2(CCCc4ccccc42)C3)C[C@@H]1CC#N (stereo partly shown) [Formate of 20]	< 0.1 µM

same assay, conditions: Homo sapiens

Structure (SMILES)	IC50
C=C(F)C(=O)N1CCN(c2nc(OC[C@@]34CCCN3C[C@H](F)C4)nc3c2CN(C)C2(CCc4cccc(Cl)c42)C3)C[C@@H]1CC#N (stereo partly shown) [Compound 35]	< 0.1 µM
C=CC(=O)N1CCN(c2nc(OCC3CCCN3C)nc3c2CN(C)C2(CCc4ccccc42)C3)CC1 (stereo not shown) [Compound 1]	1 to 10 µM
C=CC(=O)N1CCN(c2nc(OC[C@@H]3CCCN3C)nc3c2CN(C)C2(CCc4ccc(Cl)cc42)C3)C[C@@H]1CC#N (stereo partly shown) [Compound 5]	0.1 to 1 µM
